Results on 16 molecules are retold here after US11840528B2 (Hoffmann-La Roche Inc., priority 2018, dated 2023).

Experiment [1] deals with T1, h-GABA-A α5β3γ2 (Homo sapiens, UniProt P18507+P31644). Briefly: [3H]flumazenil competition binding assay, membranes of HEK293 cells expressing GABAA receptors. The note with it: displacement of [3H]-Flumazenil 0.5 nM, HEK293 cells expressing human receptors, mean of two determinations; Table 1. On the procedure: The affinity of compounds at GABAA receptor subtypes was measured by competition for [3H]flumazenil (85 Ci/mmol; Roche) binding to HEK293 cells expressing rat (stably transfected) or human (transiently transfected) receptors of composition α1β3γ2, α2β3γ2, α3β3γ2 and α5β3γ2.
Cell pellets were suspended in Krebs-tris buffer (4.8 mM KCl, 1.2 mM CaCl2), 1.2 mM MgCl2, 120 mM NaCl, 15 mM Tris; pH 7.5; binding assay buffer), homogenized by polytron for ca. 20 sec on ice and centrifuged for 60 min at 4° C. (50000 g; Sorvall, rotor: SM24=20000 rpm). The cell pellets were resuspended in Krebs-tris buffer and homogenized by polytron for ca. 15 sec on ice. Protein was measured (Bradford method, Bio-Rad) and aliquots of 1 mL were prepared and stored at −80° C.
Assays were incubated to equilibrium for 1 hour at 4° C. and harvested onto GF/C uni-filters (Packard) by filtration using a Packard harvester and washing with ice-cold wash buffer (50 mM Tris; pH 7.5). After drying, filter-retained radioactivity was detected by liquid scintillation counting. Ki values were calculated using Excel-Fit (Microsoft) and are the means of two determinations.
For orientation: Displacement assays read how much labelled ligand stays bound in the presence of the test substance.

Experiment [2] deals with T1, h-GABA-A α5β3γ2. The experiment in a line: Two-electrode voltage clamp electrophysiology in Xenopus laevis oocytes expressing GABAA receptors, modulation of GABA EC20 current. Details: host or cells: Xenopus laevis oocytes micro-injected with RNA transcripts of the subunits. The settings on record: Table 1; for Efficacy (GABA) %: % modulation of GABA EC20 = 100*(Fold increase-1); for Fold increase h-GABA-A α5β3γ2 oocyte: test compound at approx. 30 fold its Ki, GABA at EC20. Format: cell-based. On the procedure:
Xenopus laevis oocytes at maturation stages V-VI were used for the expression of cloned mRNA encoding GABAA receptor subunits. Oocytes ready for RNA micro-injection were bought from Ecocyte, Castrop-Rauxel, Germany and stored in modified Barth's medium (composition in mM: NaCl 88, KCl 1, NaHCO32.4, HEPES 10, MgSO4 0.82, CaNO3 0.33, CaCl2 0.33, pH=7.5) at 20° C. until the experiment.
Oocytes were plated in 96-well plates to be used in an automated instrument (Robo-ocyte, MultiChannelSystems, Reutlingen, Germany) for microinjection and electrophysiological recordings. Approximately 50 nl of an aqueous solution containing the RNA transcripts for the subunits of the desired GABAA receptor was injected into each oocyte. RNA concentrations ranged between 0.3 and 16 ng/μl/subunit and were adjusted in pilot experiments to obtain GABA responses of a suitable size and a maximal effect of the reference modulator, Beta-CCM (β-CCM), a betacarboline negative allosteric modulator (NAM) at the GABAA receptor benzodiazepine (BZD) binding site or Midazolam, a benzodiazepine positive allosteric modulator (PAM) at the GABAA receptor benzodiazepine (BZD) binding site. The concentration of the γ2 subunit encoding RNA usually was 5- to 10-fold higher than the RNAs encoding the other subunits. Oocytes were kept in modified Barth's medium (composition in mM: NaCl 88, KCl 1, NaHCO3 4, HEPES 10, MgSO4 0.82, CaNO3 0.33, CaCl2) 0.33, pH=7.5) at 20° C. until the experiment.
Electrophysiological experiments were performed on days 3 to 5 after the micro-injection of mRNA. During the experiment the oocytes were constantly superfused by a solution containing (in mM) NaCl 90, KCl 1, HEPES 5, MgCl2 1, CaCl2) 1 (pH 7.4). Oocytes were impaled by two glass microelectrodes (resistance: 0.4 MΩ) which were filled with a solution containing KCl 1M+K-acetate 1.5 M and voltage-clamped to −80 mV. The recordings were performed at room temperature using the Roboocyte two-electrode voltage clamp system (Multichannelsystem). After an initial equilibration period of 1.5 min GABA was added for 1.5 min at a concentration evoking approximately 20% of a maximal current response (EC20). After another rest interval of 2.5 min GABA was again added evoking a response of similar amplitude and shape. 0.5 min after the onset of this second GABA application the test compound, at a concentration corresponding to approximatively 30 fold its Ki, was added while GABA was still present. Current traces were recorded at a digitization rate of 10 Hz during and shortly before and after the GABA application.
Each compound and concentration was tested on at least 3 oocytes. Different oocytes were used for different compound concentrations. β-CCM, a negative allosteric modulator, or Midazolam, a positive allosteric modulators, were tested on a few (3-6) oocytes on each 96-well plate for a positive control at a maximally effective. β-CCM inhibited the GABA-evoked current by approximatively 50% (Fold increase ˜0.5), while Midazolam potentiated the GABA-induced current by approximatively 150% (Fold increase ˜2.5).
For the analysis, the digitized current traces of the first and second GABA response were superimposed and, if necessary, rescaled to equal maximal amplitudes. The ratio between the two responses during the time interval of test compound application was calculated point by point. The extremum of the resulting “ratio trace” was taken as the efficacy (“Fold increase”) of the compound expressed as “% modulation of GABA EC20” (100*(Fold increase-1)).
On the technique in general: Two-electrode voltage clamp holds a large cell at a set potential and records current.

With `CCOc1ncc(-c2cnn(Cc3c(-c4ccc(C)nc4)noc3C)c(=O)c2)cc1C` [Example 180, 5-(6-ethoxy-5-methylpyridin-3-yl)-2-((5-methyl-3-(6-methylpyridin-3-yl)isoxazol-4-yl)methyl)pyridazin-3(2H)-one], the Ki (as a rule, the equilibrium dissociation constant of an inhibitor or competing ligand from its target) in experiment [1] amounted to 39 nM. Besides, in experiment [2], the “Efficacy (GABA) %” value is on record as 196% and the “Fold increase h-GABA-A α5β3γ2 oocyte” value amounted to 2.96.
In experiment [1], `Cc1onc(-c2ccc(F)cc2)c1Cn1ncc(N2CCOCC2)cc1=O` [Example 11, 2-((3-(4-Fluorophenyl)-5-methylisoxazol-4-yl)methyl)-5-morpholinopyridazin-3(2H)-one] returned an inhibition constant Ki of 7.9 nM. In experiment [2], the “Efficacy (GABA) %” value turned out to be 57% and the “Fold increase h-GABA-A α5β3γ2 oocyte” value is given as 1.57.
Taken in the same sequence, the figures for `Cc1ccc(-c2noc(C)c2Cn2ncc(N3CC(OC4CC4)C3)cc2=O)nn1` [Example 239, 5-[3-(cyclopropoxy)azetidin-1-yl]-2-[[5-methyl-3-(6-methylpyridazin-3-yl)isoxazol-4-yl]methyl]pyridazin-3-one] were 1 nM, 67% and 1.67.
Taken in the same sequence, the figures for `Cc1ccc(-c2noc(C)c2Cn2ncc(N3CCC(C(F)(F)F)CC3)cc2=O)cn1` [Example 24, 2-[[5-methyl-3-(6-methyl-3-pyridyl)isoxazol-4-yl]methyl]-5-[4-(trifluoromethyl)-1-piperidyl]pyridazin-3-one] were 14.6 nM, 203% and 3.03.
On the same counts, the results for `Cc1onc(-c2ncc(C(F)(F)F)cn2)c1Cn1ncc(N2CC3(C2)CC(F)(F)CO3)cc1=O` [Example 250, 5-(7,7-difluoro-5-oxa-2-azaspiro[3.4]octan-2-yl)-2-((5-methyl-3-(5-(trifluoromethyl)pyrimidin-2-yl)isoxazol-4-yl)methyl)pyridazin-3(2H)-one] are 3.3 nM, 46% and 1.46.
In experiment [1], `Cc1ccc(-c2noc(C)c2Cn2ncc(-c3cnn(CC(C)C)c3)cc2=O)cn1` [Example 172, 5-(1-isobutylpyrazol-4-yl)-2-[[5-methyl-3-(6-methyl-3-pyridyl)isoxazol-4-yl]methyl]pyridazin-3-one] showed a Ki of 34 nM. In addition, in experiment [2], the “Efficacy (GABA) %” value is 113% and the “Fold increase h-GABA-A α5β3γ2 oocyte” value worked out at 2.13.
For `COC1CN(c2cnn(Cc3c(-c4cc(C)on4)noc3C)c(=O)c2)C1` [Example 140, 5-(3-methoxyazetidin-1-yl)-2-[[5-methyl-3-(5-methylisoxazol-3-yl)isoxazol-4-yl]methyl]pyridazin-3-one], the inhibition constant (Ki) in experiment [1] stood at 8.5 nM. Besides, in experiment [2], the “Efficacy (GABA) %” value came out at 62% and the “Fold increase h-GABA-A α5β3γ2 oocyte” value amounted to 1.62.
On the same counts, the results for `Cc1ccc(-c2noc(C)c2Cn2ncc(-c3ccnc(C(F)(F)F)c3)cc2=O)cn1` [Example 108, 2-((5-methyl-3-(6-methylpyridin-3-yl)isoxazol-4-yl)methyl)-5-(2-(trifluoromethyl)pyridin-4-yl)pyridazin-3(2H)-one] are 11.4 nM, 104% and 2.04.
In experiment [1], `Cc1ccc(-c2noc(C)c2Cn2ncc(N3C[C@H]4COC[C@H]4C3)cc2=O)cn1` [Example 49, 5-[(3aR,6aS)-1,3,3a,4,6,6a-hexahydrofuro[3,4-c]pyrrol-5-yl]-2-[[5-methyl-3-(6-methyl-3-pyridyl)isoxazol-4-yl]methyl]pyridazin-3-one] returned a Ki of 13 nM. Further, in experiment [2], the “Efficacy (GABA) %” value is 167% and the “Fold increase h-GABA-A α5β3γ2 oocyte” value was 2.67.
Molecule `CCc1onc(-c2ccc(C)nn2)c1Cn1ncc(N2CC3(CCCCO3)C2)cc1=O` [Example 324, 2-((5-ethyl-3-(6-methylpyridazin-3-yl)isoxazol-4-yl)methyl)-5-(5-oxa-2-azaspiro[3.5]nonan-2-yl)pyridazin-3(2H)-one] displayed a Ki in experiment [1] of 20 nM. Also, in experiment [2], the “Efficacy (GABA) %” value turned out to be 166% and the “Fold increase h-GABA-A α5β3γ2 oocyte” value worked out at 2.66.
Taken in the same sequence, the figures for `Cc1ccc(-c2noc(C)c2Cn2ncc(N3C[C@H]4CC[C@@H](C3)O4)cc2=O)cn1` [Example 28, 2-[[5-methyl-3-(6-methyl-3-pyridyl)isoxazol-4-yl]methyl]-5-[(1R,5S)-8-oxa-3-azabicyclo[3.2.1]octan-3-yl]pyridazin-3-one] were 0.6 nM, 136% and 2.36.
On to `CNc1ccc(-c2cnn(Cc3c(-c4ccc(C)nc4)noc3C)c(=O)c2)cn1` [Example 174, 5-(6-(methylamino)-3-pyridyl)-2-((5-methyl-3-(6-methyl-3-pyridyl)isoxazol-4-yl)methyl)pyridazin-3-one], for which the inhibitory constant (Ki) in experiment [1] came out at 21.7 nM. Besides, in experiment [2], the “Efficacy (GABA) %” value came to 101% and the “Fold increase h-GABA-A α5β3γ2 oocyte” value is listed as 2.01.
In experiment [1], `Cc1onc(-c2ccc(Cl)nn2)c1Cn1ncc(N2CC(OC(C)(C)C)C2)cc1=O` [Example 271, 5-(3-(tert-butoxy)azetidin-1-yl)-2-((3-(6-chloropyridazin-3-yl)-5-methylisoxazol-4-yl)methyl)pyridazin-3(2H)-one] gave a Ki of 7.3 nM. Moreover, in experiment [2], the “Efficacy (GABA) %” value worked out at 90% and the “Fold increase h-GABA-A α5β3γ2 oocyte” value is 1.9.
On the same counts, the results for `Cc1ccc(-c2noc(C)c2Cn2ncc(N3CCC(n4c(C)nnc4C)CC3)cc2=O)cn1` [Example 54, 5-[4-(3,5-dimethyl-1,2,4-triazol-4-yl)-1-piperidyl]-2-[[5-methyl-3-(6-methyl-3-pyridyl)isoxazol-4-yl]methyl]pyridazin-3-one] are 10.8 nM, 175% and 2.75.
As for `Cc1ccc(-c2noc(C)c2Cn2ncc(N3C4COCC3C4)cc2=O)cn1` [Example 33, 2-[[5-methyl-3-(6-methyl-3-pyridyl)isoxazol-4-yl]methyl]-5-(3-oxa-6-azabicyclo[3.1.1]heptan-6-yl)pyridazin-3-one], the Ki in experiment [1] is 3.2 nM. In experiment [2], the “Efficacy (GABA) %” value is recorded as 150% and the “Fold increase h-GABA-A α5β3γ2 oocyte” value is reported as 2.5.
On the same counts, the results for `Cc1ccc(-c2noc(C)c2Cn2ncc(N3CCC(c4ccnn4C)CC3)cc2=O)cn1` [Example 166, 2-[[5-methyl-3-(6-methyl-3-pyridyl)isoxazol-4-yl]methyl]-5-[4-(2-methylpyrazol-3-yl)-1-piperidyl]pyridazin-3-one] are 1.7 nM, 149% and 2.49.
